Data: patent US7005434B2, “Compounds and uses thereof” (SB Corporation, priority 2001, dated 2006)

Tested on: angiogenesis (vascular density) in air pouch granuloma
Test: Murine air pouch granuloma model of inflammatory angiogenesis
Assay type: in vivo, mice
Details: positive control
Text: C. Measurement of Angiogenesis in vivo—Murine Air Pouch Granuloma Model
The murine airpouch granuloma model of chronic inflammation (Kimura et al., 1985, J. Pharmacobio-Dyn., 8:393–400; Colville-Nash et al., 1995, J. Pharm. and Exp. Ther., 274:1463–1472) whose disclosure is incorporated herein by reference in its entirety, is characterized by inflammatory cell influx, fibrous tissue proliferation and intense angiogenesis. […] In addition, angiogenesis can be accurately quantitated by a vascular casting method.
Day −1, mice are anesthetized using Aerrane (isoflurane) gas (5%) or other approved methods, after which 3 mls of air is injected into the dorsal subcutaneous tissue using a 27 g needle. Mice are allowed to recover. […]
When the granuloma is removed it is weighed and then dried for 3 days at 45° C. and reweighed. […] The carmine content is then determined against a carmine red standard curve (0.5 to 2 mg/ml) generated in extracted tissue from non carmine treated animals and read at 490 nm. Sample and standard values are determined typically using DeltaSoft Elisa analysis software (Biometallics Inc., Princeton, N.J.). […]
The effect of compounds on vascular density is typically measured 6 days after induction of the granuloma. This time point has been determined to be at or near the peak of angiogenesis. […] Medroxyprogesterone has no effect on granuloma size as measured by dry weight.

medroxyprogesterone
maximum reduction (vascular density / vascular index) (measured 6 days after induction): 50%
effect on granuloma size as measured by dry weight: no effect
